US20260048051A1, “TREATMENT OF INFLAMMATORY BOWEL DISEASE” (Atomwise Inc., priority 2024, published 2026)

molecular target: T1, TYK2-JH2 (Homo sapiens, UniProt P29597); assay: TYK2-JH2 HTRF binding assay (ligand efficiency); conditions: calculated from binding-assay IC50 (Equation 1)
T1 construct: TYK JH2 enzyme mix (ChemPartner: CP20210818A-BV); purchased ChemPartner CP20210818A-BV
Protocol: The following example describes the TYK2-JH2 HTRF binding assay used to determine the ligand efficiency of the TYK2 inhibitors.
To calculate ligand efficiency, Equation 1 is applied: […]
in which IC50 comes from the binding assay used to determine compound potency.
TYK JH2 enzyme mix (ChemPartner: CP20210818A-BV), tracer (ChemPartner: CP-0029472-051) and mAb Anti-6HIS Tb cryptate Gold (Cisbio: Cat No. 61HI2TLA) mix were prepared in assay buffer (10 mM MgCl2, 20 mM HEPES pH 7.5, 0.01% Triton X-100, 1 mM DTT). Compounds diluted in DMSO (Final Concentrations 0.1 to 0.000005 [μM]) and enzyme mix (0.5 nM Final Concentration) were added to 384 well plates, briefly centrifuged and incubated at room temperature for 10 minutes. After incubation, tracer mix (Tracer-35 nM final concentration); (MAb Anti-6HIS Tb cryptate Gold-0.5× final)) was added, briefly centrifuged then incubate at room temperature 60 minutes. After incubation, plates were read by Envision TR-FRET (Ex340/Em495/520) protocol (PerkinElmer-Envision 2104 multilabel plate reader).

T1 sequence (P29597 589-875 limits assumed): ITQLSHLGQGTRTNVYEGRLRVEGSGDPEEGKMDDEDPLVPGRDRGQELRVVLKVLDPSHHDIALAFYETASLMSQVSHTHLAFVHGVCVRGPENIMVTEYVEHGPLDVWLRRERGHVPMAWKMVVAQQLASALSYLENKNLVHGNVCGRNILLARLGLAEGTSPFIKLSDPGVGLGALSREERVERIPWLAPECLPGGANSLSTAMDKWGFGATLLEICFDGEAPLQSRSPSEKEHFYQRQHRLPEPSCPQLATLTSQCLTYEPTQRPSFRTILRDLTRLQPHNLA

Row | Compound | Ligand Efficiency
1 | CC(c1ccc(Nc2cc(Nc3ncccc3S(C)(=O)=O)ncn2)nc1)N1CC2(CC(F)C2)C1 (stereo in doubt) [Compound 10, N^4-(5-((1R)-1-(6-fluoro-2-azaspiro[3.3]heptan-2-yl)ethyl)pyridin-2-yl)-N^6-(3-(methylsulfonyl)pyridin-2-yl)pyrimidine-4,6-diamine] | ††† (†††: >0.39)
2 | CC(c1ccc(Nc2cc(Nc3ncccc3S(C)(=O)=O)ncn2)nc1)N1CCCC1 (stereo in doubt) [Compound 15, (R)—N^4-(3-(methylsulfonyl)pyridin-2-yl)-N^6-(5-(1-(pyrrolidin-1-yl)ethyl)pyridin-2-yl)pyrimidine-4,6-diamine] | ††† (†††: >0.39)
3 | CC(c1ccc(Nc2cc(Nc3ncccc3S(C)(=O)=O)ncn2)nc1)N1CC2(CCOCC2)C1 (stereo in doubt) [Compound 31, (R)—N^4-(5-(1-(7-oxa-2-azaspiro[3.5]nonan-2-yl)ethyl)pyridine-2-yl)-N^6-(3-(methylsulfonyl)pyridin-2-yl)pyrimidine-4,6-diamine] | †† (††: 0.37-0.39)
4 | CC(NC1COC1)c1ccc(Nc2cc(Nc3ccccc3S(C)(=O)=O)ncn2)nc1 (stereo in doubt) [Compound 40, (R)—N^4-(2-(methylsulfonyl)phenyl)-N^6-(5-(1-(oxetan-3-ylamino)ethyl)pyridin-2-yl)pyrimidine-4,6-diamine] | ††† (†††: >0.39)
5 | COc1cnc(Nc2cc(Nc3ccc([C@H](C)N4CC5(COC5)C4)cn3)ncn2)c(S(C)(=O)=O)c1 [Compound 3, (S)—N^4-(5-(1-(2-oxa-6-azaspiro[3.3]heptan-6-yl)ethyl)pyridine-2-yl)-N^6-(5-methoxy-3-(methylsulfonyl)pyridin-2-yl)pyrimidine-4,6-diamine] | †† (††: 0.37-0.39)
6 | Cc1nc(Nc2cc(Nc3ncccc3S(C)(=O)=O)ncn2)ccc1NC1(C)COC1 [Compound 6, N^4-(6-methyl-5-((3-methyloxetan-3-yl)amino)pyridin-2-yl)-N^6-(3-(methylsulfonyl)pyridin-2-yl)pyrimidine-4,6-diamine] | ††† (†††: >0.39)
7 | CS(=O)(=O)c1cccnc1Nc1cc(Nc2ccc(N3CCN(C4CC4)CC3)cn2)ncn1 [Compound 7, N^4-(5-(4-cyclopropylpiperazin-1-yl)pyridin-2-yl)-N^6-(3-(methylsulfonyl)pyridin-2-yl)pyrimidine-4,6-diamine] | ††† (†††: >0.39)
8 | C[C@H]1CN(C2CC2)CCN1c1ccc(Nc2cc(Nc3ncccc3S(C)(=O)=O)ncn2)nc1 [Compound 8, (S)—N^4-(5-(4-cyclopropyl-2-methylpiperazin-1-yl)pyridin-2-yl)-N^6-(3-(methylsulfonyl)pyridin-2-yl)pyrimidine-4,6-diamine] | ††† (†††: >0.39)
9 | CS(=O)(=O)c1cccnc1Nc1cc(Nc2ccc3c(n2)CC[C@@H]3N2CC3(COC3)C2)ncn1 [Compound 9, N^4-((5S)-5-(2-oxa-6-azaspiro[3.3]heptan-6-yl)-6,7-dihydro-5H-cyclopenta[b]pyridin-2-yl)-N^6-(3-(methylsulfonyl)pyridin-2-yl)pyrimidine-4,6-diamine] | ††† (†††: >0.39)
10 | CC(C)[C@@H](c1ccc(Nc2cc(Nc3ncccc3S(C)(=O)=O)ncn2)nc1)N1CC2(COC2)C1 [Compound 13, (S)—N^4-(5-(2-methyl-1-(2-oxa-6-azaspiro[3.3]heptan-6-yl)propyl)pyridine-2-yl)-N^6-(3-(methylsulfonyl)pyridin-2-yl)pyrimidine-4,6-diamine] | †† (††: 0.37-0.39)
11 | C[C@@H](c1ccc(Nc2cc(Nc3ncc(Cl)cc3S(C)(=O)=O)ncn2)nc1)N1CC2(COC2)C1 [Compound 14, (S)—N^4-(5-(1-(2-oxa-6-azaspiro[3.3]heptan-6-yl)ethyl)pyridin-2-yl)-N^6-(5-chloro-3-(methylsulfonyl)pyridin-2-yl)pyrimidine-4,6-diamine] | ††† (†††: >0.39)
12 | CS(=O)(=O)c1cccnc1Nc1cc(Nc2ccc([C@@H](N3CC4(COC4)C3)C(F)(F)F)cn2)ncn1 [Compound 16, (R)—N^4-(3-(methylsulfonyl)pyridin-2-yl)-N^6-(5-(2,2,2-trifluoro-1-(2-oxa-6-azaspiro[3.3]heptan-6-yl)ethyl)pyridin-2-yl)pyrimidine-4,6-diamine] | †† (††: 0.37-0.39)
13 | CS(=O)(=O)c1cccnc1Nc1cc(Nc2cccc(C(F)(F)F)n2)ncn1 [Compound 19, N^4-(3-(methylsulfonyl)pyridin-2-yl)-N^6-(6-(trifluoromethyl)pyridin-2-yl)pyrimidine-4,6-diamine] | ††† (†††: >0.39)
14 | C[C@H]1CN(C)CCN1c1ccc(Nc2cc(Nc3ncccc3S(C)(=O)=O)ncn2)nc1 [Compound 20, (S)—N^4-(5-(2,4-dimethylpiperazin-1-yl)pyridin-2-yl)-N^6-(3-(methylsulfonyl)pyridin-2-yl)pyrimidine-4,6-diamine] | ††† (†††: >0.39)
15 | CC1(Nc2ccc(Nc3cc(Nc4ncccc4S(C)(=O)=O)ncn3)nc2)COC1 [Compound 21, N^4-(5-((3-methyloxetan-3-yl)amino)pyridin-2-yl)-N^6-(3-(methylsulfonyl)pyridin-2-yl)pyrimidine-4,6-diamine] | ††† (†††: >0.39)
16 | CC(c1ccc(Nc2cc(Nc3ncccc3S(C)(=O)=O)ncn2)nc1)N1CC(F)C1 (centres unmarked) [Compound 22, N^4-(5-(1-(3-fluoroazetidin-1-yl)ethyl)pyridin-2-yl)-N^6-(3-(methylsulfonyl)pyridin-2-yl)pyrimidine-4,6-diamine] | ††† (†††: >0.39)
17 | Cc1cc(Nc2cc(Nc3ncccc3S(C)(=O)=O)ncn2)ncc1NC1(C)COC1 [Compound 23, N^4-(4-methyl-5-((3-methyloxetan-3-yl)amino)pyridin-2-yl)-N-(3-(methylsulfonyl)pyridin-2-yl)pyrimidine-4,6-diamine] | ††† (†††: >0.39)
18 | CS(=O)(=O)c1cccnc1Nc1cc(Nc2ccc(N3CCC4(CCO4)CC3)cn2)ncn1 [Compound 24, N^4-(5-(1-oxa-7-azaspiro[3.5]nonan-7-yl)pyridin-2-yl)-N^6-(3-(methylsulfonyl)pyridin-2-yl)pyrimidine-4,6-diamine] | †† (††: 0.37-0.39)
19 | C[C@@H](c1ccc(Nc2cc(Nc3ncccc3S(C)(=O)=O)ncn2)nc1)N1C[C@H]2COC[C@H]2C1 [Compound 25, N^4-(3-(methylsulfonyl)pyridin-2-yl)-N^6-(5-(1-((3aR,6aS)-tetrahydro-1H-furo[3,4-c]pyrrol-5(3H)-yl)ethyl)pyridin-2-yl)pyrimidine-4,6-diamine] | ††† (†††: >0.39)
20 | CC(NC1CCOC1)c1ccc(Nc2cc(Nc3ccccc3S(C)(=O)=O)ncn2)nc1 (centres unmarked) [Compound 26, N^4-(2-(methylsulfonyl)phenyl)-N^6-(5-(1-(tetrahydrofuran-3-ylamino)ethyl)pyridin-2-yl)pyrimidine-4,6-diamine] | †† (††: 0.37-0.39)
21 | CS(=O)(=O)c1ccccc1Nc1cc(Nc2ccc3c(n2)CCCC3N2CC3(CCOCC3)C2)ncn1 (centres unmarked) [Compound 27, N^4-(5-(7-oxa-2-azaspiro[3.5]nonan-2-yl)-5,6,7,8-tetrahydroquinolin-2-yl)-N^6-(2-(methylsulfonyl)phenyl)pyrimidine-4,6-diamine] | † (†: < 0.37)
22 | CS(=O)(=O)c1ccccc1Nc1cc(Nc2ccc(CNC3CCOC3)cn2)ncn1 (centres unmarked) [Compound 28, N^4-(2-(methylsulfonyl)phenyl)-N^6-(5-((tetrahydrofuran-3-ylamino)methyl)pyridin-2-yl)pyrimidine-4,6-diamine] | †† (††: 0.37-0.39)
23 | C[C@@H](c1ccc(Nc2cc(Nc3ncccc3S(C)(=O)=O)ncn2)nc1)N1CCCC12CCOCC2 [Compound 29, (S)—N^4-(5-(1-(8-oxa-1-azaspiro[4.5]decan-1-yl)ethyl)pyridin-2-yl)-N^6-(3-(methylsulfonyl)pyridin-2-yl)pyrimidine-4,6-diamine] | †† (††: 0.37-0.39)
24 | C[C@H](c1ccc(Nc2cc(Nc3ncccc3S(C)(=O)=O)ncn2)nc1)N1CCC2(CCOCC2)C1 [Compound 30, (R)—N^4-(5-(1-(8-oxa-2-azaspiro[4.5]decan-2-yl)ethyl)pyridin-2-yl)-N^6-(3-(methylsulfonyl)pyridin-2-yl)pyrimidine-4,6-diamine] | †† (††: 0.37-0.39)
25 | C[C@@H](c1ccc(Nc2cc(Nc3ncccc3S(C)(=O)=O)ncn2)nc1)N1CC2(CCOC2)C1 [Compound 32, (S)—N^4-(5-(1-(6-oxa-2-azaspiro[3.4]octan-2-yl)ethyl)pyridin-2-yl)-N^6-(3-(methylsulfonyl)pyridin-2-yl)pyrimidine-4,6-diamine] | ††† (†††: >0.39)
26 | CC(C)(c1ccc(Nc2cc(Nc3ncccc3S(C)(=O)=O)ncn2)nc1)N1CC2(CCOCC2)C1 [Compound 33, N^4-(5-(2-(7-oxa-2-azaspiro[3.5]nonan-2-yl)propan-2-yl)pyridin-2-yl)-N^6-(3-(methylsulfonyl)pyridin-2-yl)pyrimidine-4,6-diamine] | †† (††: 0.37-0.39)
